In this experiment the test system is TNF-α. In words: Inhibition of TNF-α secretion by LPS-induced RAW264.7 macrophages (ELISA). It counts as cell-based. The note with it: Mus musculus, RAW264.7, LPS 1 μg/mL, 24 h (Table 1), read-out: TNF-α inhibition rate (%). From the text:
This test example simulated the inflammatory response at a cellular level in vitro, that is, the inflammatory response of mouse peritoneal macrophages (RAW264.7) was induced by lipopolysaccharide (LPS) to produce models of the inflammatory factors, and an inhibitory effect of the effective part extract of Monochasma savatieri on the TNF-α secreted by cells was detected by ELISA, to evaluate an anti-inflammatory effect thereof.
Test reagents were: RAW264.7 cells; a DMEM medium, a 1640 medium (Invitrogen), fetal bovine serum (Gibco); LPS(Sigma); an ELISA kit (ebioscience), and a CCK8 reagent (Taosu, Beijing).
Test samples were: the B2-13, B2-15, B2-16, and B2-16-15 prepared in Example 1; a positive drug: dexamethasone.
Test method: • 1. Cell culture: the RAW264.7 cells were cultured in the 1640+10% FBS at 37° C. with 5% CO2, and the cells were passaged when showing logarithmic growth. When reaching 80% confluency, the cells were plated in a 96-well plate (density: 2×10^4 cells/well) at 100 μL/well, and then incubated at 37° C. with 5% CO2 for 12 h to 18 h. • 2. […]
Evaluation index: an inhibition rate of the inflammatory factor TNF-α. OD values were read at 450 nm and 570 nm, a standard curve was plotted, a concentration of TNF-α in the medium was calculated, and the inhibition rate and inhibitory activity IC50 value of the samples on the TNF-α produced by the cells were calculated. […]
In general terms: ELISA stands for enzyme-linked immunosorbent assay.

A word on the inhibition: it is the change of the read-out against control, counted positive when it falls. For `C[C@@H]1C[C@H]2[C@@H]3CCC4=CC(=O)C=C[C@]4(C)[C@@]3(F)[C@@H](O)C[C@]2(C)[C@@]1(O)C(=O)CO` [Dexamethasone, dexamethasone], the inhibition at 10 µM came to 58.7%.

(Values after US12251413B2, “Use of effective part extract of Monochasma savatieri in preparation of drug for treating inflammatory disease or tumor” (Harbin Kanglong Pharmaceutical Co., Ltd., priority 2022, dated 2025).)
